# Data as given in patent US9650361B2, “N-(pyridin-2-yl)pyrimidin-4-amine derivatives containing a sulfoximine group” (BAYER PHARAM AKTIENGESELLSCHAFT, priority 2012, dated 2017).
# Columns and labels:
# CDK9/CycT1 [1] = target: T1, CDK9/CycT1 (Homo sapiens, UniProt P50750); assay: CDK9/CycT1 high ATP kinase assay (Method 1b); assay type: biochemical; settings: 2 mM ATP
# T1 construct: Recombinant full-length His-tagged human CDK9 and CycT1; His; purchased Invitrogen PV4131; host or cells: insect cells
# Experimental: 1b. CDK9/CycT1 High ATP Kinase Assay
# CDK9/CycT1-inhibitory activity of compounds of the present invention at a high ATP concentration after preincubation of enzyme and test compounds was quantified employing the CDK9/CycT1 TR-FRET assay as described in the following paragraphs.
# Recombinant full-length His-tagged human CDK9 and CycT1, expressed in insect cells and purified by Ni-NTA affinity chromatography, were purchase from Invitrogen (Cat. No PV4131). As substrate for the kinase reaction biotinylated peptide biotin-Ttds-YISPLKSPYKISEG (C-terminus in amid form) was used which can be purchased e.g. form the company JERINI peptide technologies (Berlin, Germany).
# (§1) For the assay 50 nl of a 100 fold concentrated solution of the test compound in DMSO was pipetted into a black low volume 384 well microtiter plate (Greiner Bio-One, Frickenhausen, Germany), 2 μl of a solution of CDK9/CycT1 in aqueous assay buffer [50 mM Tris/HCl pH 8.0, 10 mM MgCl2, 1.0 mM dithiothreitol, 0.1 mM sodium ortho-vanadate, 0.01% (v/v) Nonidet-P40 (Sigma)] were added and the mixture was incubated for 15 min at 22° C. to allow pre-binding of the test compounds to the enzyme before the start of the kinase reaction. Then the kinase reaction was started by the addition of 3 μl of a solution of adenosine-tri-phosphate (ATP, 3.3 mM=>final conc. in the 5 μl assay volume is 2 mM) and substrate (1.67 μM=>final conc. in the 5 μl assay volume is 1 μM) in assay buffer and the resulting mixture was incubated for a reaction time of 25 min at 22° C. The concentration of CDK9/CycT1 was adjusted depending of the activity of the enzyme lot and was chosen appropriate to have the assay in the linear range, typical concentrations were in the range of 0.5 μg/ml. The reaction was stopped by the addition of 5 μl of a solution of TR-FRET detection reagents (0.2 μM streptavidine-XL665 [Cisbio Bioassays, Codolet, France] and 1 nM anti-RB(pSer807/pSer811)-antibody from BD Pharmingen [#558389] and 1.2 nM LANCE EU-W1024 labeled anti-mouse IgG antibody [Perkin-Elmer, product no. AD0077]) in an aqueous EDTA-solution (100 mM EDTA, 0.2% (w/v) bovine serum albumin in 100 mM HEPES/NaOH pH 7.0).
# (§2) The resulting mixture was incubated 1 h at 22° C. to allow the formation of complex between the phosphorylated biotinylated peptide and the detection reagents. Subsequently the amount of phosphorylated substrate was evaluated by measurement of the resonance energy transfer from the Eu-chelate to the streptavidine-XL. Therefore, the fluorescence emissions at 620 nm and 665 nm after excitation at 350 nm was measured in a HTRF reader, e.g. a Rubystar (BMG Labtechnologies, Offenburg, Germany) or a Viewlux (Perkin-Elmer). The ratio of the emissions at 665 nm and at […] was taken as the measure for the amount of phosphorylated substrate. The data were normalised (enzyme reaction without inhibitor=0% inhibition, all other assay components but no enzyme=100% inhibition).
# CDK9/CycT1 [2] = target: T1, CDK9/CycT1; assay: CDK9/CycT1 kinase assay (Method 1a); assay type: biochemical; settings: 10 μM ATP
# Source text: 1a. CDK9/CycT1 Kinase Assay:
# CDK9/CycT1-inhibitory activity of compounds of the present invention was quantified employing the CDK9/CycT1 TR-FRET assay as described in the following paragraphs:
# as §1, with “Recombinant full-length His-tagged human CDK9 and CycT1, expressed in insect cells and purified by Ni-NTA affinity chromatography, were purchased from Invitrogen (Cat. No PV4131). As substrate for the kinase reaction biotinylated peptide biotin-Ttds-YISPLKSPYKISEG (C-terminus in amid form) was used which can be purchased e.g. form the company JERINI Peptide Technologies (Berlin, Germany) For” for “For”, “16.7 μM=>final” for “3.3 mM=>final”, “10 μM)” for “2 mM)”, “1” for “0.5”
# as §2
# T1 sequence (P50750 whole entry): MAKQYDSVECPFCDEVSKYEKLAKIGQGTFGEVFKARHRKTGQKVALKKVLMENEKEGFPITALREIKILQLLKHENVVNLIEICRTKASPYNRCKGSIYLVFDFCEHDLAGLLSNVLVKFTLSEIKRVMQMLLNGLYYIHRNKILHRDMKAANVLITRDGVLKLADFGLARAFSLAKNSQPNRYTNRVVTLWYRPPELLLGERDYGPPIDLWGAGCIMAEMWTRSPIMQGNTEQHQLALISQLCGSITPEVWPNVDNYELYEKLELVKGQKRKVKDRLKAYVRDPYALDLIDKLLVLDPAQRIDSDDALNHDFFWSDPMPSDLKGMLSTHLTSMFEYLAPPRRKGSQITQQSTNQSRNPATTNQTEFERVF
# T1 sequence (O60563 whole entry partner): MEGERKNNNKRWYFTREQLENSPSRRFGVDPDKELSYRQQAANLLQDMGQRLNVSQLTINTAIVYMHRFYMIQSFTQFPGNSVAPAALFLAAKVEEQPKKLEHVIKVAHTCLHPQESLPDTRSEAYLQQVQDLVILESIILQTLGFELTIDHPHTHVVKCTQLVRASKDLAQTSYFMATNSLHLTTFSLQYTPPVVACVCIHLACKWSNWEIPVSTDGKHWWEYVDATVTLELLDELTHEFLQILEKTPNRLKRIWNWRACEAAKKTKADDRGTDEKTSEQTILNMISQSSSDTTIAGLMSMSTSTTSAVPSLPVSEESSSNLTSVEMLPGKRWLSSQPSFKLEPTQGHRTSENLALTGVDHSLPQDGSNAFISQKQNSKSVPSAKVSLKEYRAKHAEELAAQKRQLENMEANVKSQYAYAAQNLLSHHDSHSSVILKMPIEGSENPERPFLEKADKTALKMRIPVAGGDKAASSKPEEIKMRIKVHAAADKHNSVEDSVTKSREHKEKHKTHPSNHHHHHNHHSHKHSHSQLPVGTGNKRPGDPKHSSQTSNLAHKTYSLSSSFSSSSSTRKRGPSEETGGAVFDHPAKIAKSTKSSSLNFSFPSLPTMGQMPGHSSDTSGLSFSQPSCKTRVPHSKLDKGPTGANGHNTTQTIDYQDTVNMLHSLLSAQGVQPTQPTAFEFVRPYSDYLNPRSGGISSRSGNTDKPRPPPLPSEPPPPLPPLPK
SMILES,IC50 (CDK9/CycT1 [1]) [nM],IC50 (CDK9/CycT1 [2]) [nM]
"COc1cc(F)ccc1-c1cc(Nc2cc(CS(C)(=N)=O)cc(C)n2)ncn1 (single isomer, unassigned) [Example 8, 6-(4-Fluoro-2-methoxyphenyl)-N-{6-methyl-4-[(S-methylsulfonimidoyl)methyl]pyridin-2-yl}pyrimidin-4-amine]",6,4
"COc1cc(F)ccc1-c1cc(Nc2cc(CS(C)(=N)=O)cc(Cl)n2)ncn1 (single isomer, unassigned) [Example 5, N-{6-Chloro-4-[(S-methylsulfonimidoyl)methyl]pyridin-2-yl}-6-(4-fluoro-2-methoxyphenyl)pyrimidin-4-amine]",9,5
"COc1cc(F)ccc1-c1cc(Nc2cc(CS(C)(=N)=O)ccn2)ncn1 (single isomer, unassigned) [Example 3, 6-(4-Fluoro-2-methoxyphenyl)-N-{4-[(S-methylsulfonimidoyl)methyl]pyridin-2-yl}pyrimidin-4-amine]",10,4
"COc1cc(F)ccc1-c1cc(Nc2cc(CS(C)(=N)=O)cc(Cl)n2)ncn1 (racemic) [Example 4, (rac)-N-{6-Chloro-4-[(S-methylsulfonimidoyl)methyl]pyridin-2-yl}-6-(4-fluoro-2-methoxyphenyl)pyrimidin-4-amine]",11,4
"COc1cc(F)ccc1-c1cc(Nc2cc(CS(C)(=N)=O)cc(C)n2)ncn1 (single isomer, unassigned) [Example 9, 6-(4-Fluoro-2-methoxyphenyl)-N-{6-methyl-4-[(S-methylsulfonimidoyl)methyl]pyridin-2-yl}pyrimidin-4-amine]",2,4
"COc1cc(F)ccc1-c1cc(Nc2cc(CS(C)(=N)=O)cc(Cl)n2)ncn1 (single isomer, unassigned) [Example 6, N-{6-Chloro-4-[(S-methylsulfonimidoyl)methyl]pyridin-2-yl}-6-(4-fluoro-2-methoxyphenyl)pyrimidin-4-amine]",5,4
"COc1cc(F)ccc1-c1cc(Nc2cc(CS(C)(=N)=O)cc(C(F)(F)F)n2)ncn1 (racemic) [Example 10, (rac)-6-(4-Fluoro-2-methoxyphenyl)-N-{4-[(S-methylsulfonimidoyl)methyl]-6-(trifluoromethyl)pyridin-2-yl}pyrimidin-4-amine]",3,5
"COc1cc(F)ccc1-c1cc(Nc2cc(CS(C)(=N)=O)ccn2)ncn1 (single isomer, unassigned) [Example 2, 6-(4-Fluoro-2-methoxyphenyl)-N-{4-[(S-methylsulfonimidoyl)methyl]pyridin-2-yl}pyrimidin-4-amine]",30,9
"COc1cc(F)ccc1-c1cc(Nc2cc(CS(C)(=N)=O)cc(C)n2)ncn1 (racemic) [Example 7, (rac)-6-(4-Fluoro-2-methoxyphenyl)-N-{6-methyl-4-[(S-methylsulfonimidoyl)methyl]pyridin-2-yl}pyrimidin-4-amine]",4,5
"COc1cc(F)ccc1-c1cc(Nc2cc(CS(C)(=N)=O)ccn2)ncn1 (racemic) [Example 1, (rac)-6-(4-Fluoro-2-methoxyphenyl)-N-{4-[(S-methylsulfonimidoyl)methyl]pyridin-2-yl}pyrimidin-4-amine]",49,5
